Test results taken from article doi:10.1101/2024.08.19.608619, “Discovery of potent SARS-CoV-2 nsp3 macrodomain inhibitors uncovers lack of translation to cellular antiviral response” (bioRxiv, 2024).
In brackets after ≈: the same amount, converted by molar mass.

tested on: not listed separately; experiment: in vitro; settings: human, hela-ace2 cells, 50.0

SMILES	CC50 at 24 h
CC(C)[C@@H](Nc1ncnc2[nH]cc(C(=O)NC3CC3)c12)c1ccc2c(c1)S(=O)(=O)CCC2 [ASAP-0011207]	> 20 µM
CC(C)[C@@H](Nc1ncnc2[nH]c(-c3ccc4cncn4c3)cc12)c1ccc2c(c1)S(=O)(=O)CCC2 [ASAP-0011215]	> 20 µM

tested on: HeLa-ACE2 cells; experiment: not given; settings: HeLa-ACE2 cytotoxicity

SMILES	CC50	cc10
CC(C)[C@@H](Nc1ncnc2[nH]cc(C(=O)NC3CC3)c12)c1ccc2c(c1)S(=O)(=O)CCC2 [ASAP-0011207]	> 20 µM	> 20.0 µM
CC(C)[C@@H](Nc1ncnc2[nH]c(-c3ccc4cncn4c3)cc12)c1ccc2c(c1)S(=O)(=O)CCC2 [ASAP-0011215]	> 20 µM	> 20.0 µM

same assay, conditions: HeLa-ACE2 cytotoxicity; highest measured response of the dose series

SMILES	perc_max_measured
CC(C)[C@@H](Nc1ncnc2[nH]cc(C(=O)NC3CC3)c12)c1ccc2c(c1)S(=O)(=O)CCC2 [ASAP-0011207]	109.458%
CC(C)[C@@H](Nc1ncnc2[nH]c(-c3ccc4cncn4c3)cc12)c1ccc2c(c1)S(=O)(=O)CCC2 [ASAP-0011215]	108.268%

same assay, conditions: HeLa-ACE2 cytotoxicity; lowest measured response of the dose series

SMILES	perc_min_measured
CC(C)[C@@H](Nc1ncnc2[nH]cc(C(=O)NC3CC3)c12)c1ccc2c(c1)S(=O)(=O)CCC2 [ASAP-0011207]	97.44%
CC(C)[C@@H](Nc1ncnc2[nH]c(-c3ccc4cncn4c3)cc12)c1ccc2c(c1)S(=O)(=O)CCC2 [ASAP-0011215]	81.968%

tested on: not listed separately; experiment: Permeability Papp (AB) MDR1/MDCKII; settings: In vitro MDR1-MDCKII permeability, A to B, mean

SMILES	papp_a_to_b_mean
CC(C)[C@@H](Nc1ncnc2[nH]cc(C(=O)NC3CC3)c12)c1ccc2c(c1)S(=O)(=O)CCC2 [ASAP-0011207]	2.97 ×10⁻⁶ cm/s

same assay, conditions: In vitro MDR1-MDCKII permeability, A to B, no inhibitor

SMILES	papp_a_to_b_mean
CC(C)[C@@H](Nc1ncnc2[nH]c(-c3ccc4cncn4c3)cc12)c1ccc2c(c1)S(=O)(=O)CCC2 [ASAP-0011215]	0.56 ×10⁻⁶ cm/s

same assay, conditions: In vitro MDR1-MDCKII permeability, recovery A to B, mean

SMILES	perc_recovery_a_to_b_mean
CC(C)[C@@H](Nc1ncnc2[nH]cc(C(=O)NC3CC3)c12)c1ccc2c(c1)S(=O)(=O)CCC2 [ASAP-0011207]	85.8%

same assay, conditions: In vitro MDR1-MDCKII permeability, recovery A to B, no inhibitor

SMILES	perc_recovery_a_to_b_mean
CC(C)[C@@H](Nc1ncnc2[nH]c(-c3ccc4cncn4c3)cc12)c1ccc2c(c1)S(=O)(=O)CCC2 [ASAP-0011215]	70.8%

tested on: not listed separately; experiment: LogD; settings: pH 7.4; In vitro LogD

SMILES	logd
CC(C)[C@@H](Nc1ncnc2[nH]cc(C(=O)NC3CC3)c12)c1ccc2c(c1)S(=O)(=O)CCC2 [ASAP-0011207]	3.2
CC(C)[C@@H](Nc1ncnc2[nH]c(-c3ccc4cncn4c3)cc12)c1ccc2c(c1)S(=O)(=O)CCC2 [ASAP-0011215]	4.0

tested on: not listed separately; experiment: In vitro kinetic solubility; settings: In vitro kinetic solubility, ph 7.4

SMILES	solubility_mean
CC(C)[C@@H](Nc1ncnc2[nH]cc(C(=O)NC3CC3)c12)c1ccc2c(c1)S(=O)(=O)CCC2 [ASAP-0011207]	216 µM (≈ 98 µg/mL)
CC(C)[C@@H](Nc1ncnc2[nH]c(-c3ccc4cncn4c3)cc12)c1ccc2c(c1)S(=O)(=O)CCC2 [ASAP-0011215]	14 µM (≈ 6.81 µg/mL)

tested on: not listed separately; experiment: Hepatic microsomal stability, MLM; assay type: in vitro ADME; settings: In vitro mouse liver microsomal stability

SMILES	clint	perc_remaining	t_half
CC(C)[C@@H](Nc1ncnc2[nH]cc(C(=O)NC3CC3)c12)c1ccc2c(c1)S(=O)(=O)CCC2 [ASAP-0011207]	1740.0 µL/min/mg	0.0%	1.0 min
CC(C)[C@@H](Nc1ncnc2[nH]c(-c3ccc4cncn4c3)cc12)c1ccc2c(c1)S(=O)(=O)CCC2 [ASAP-0011215]	170.0 µL/min/mg	6.0%	9.8 min

same assay, conditions: In vitro mouse liver microsomal stability, no cofactor

SMILES	perc_remaining_no_cofactor
CC(C)[C@@H](Nc1ncnc2[nH]cc(C(=O)NC3CC3)c12)c1ccc2c(c1)S(=O)(=O)CCC2 [ASAP-0011207]	102.0%
CC(C)[C@@H](Nc1ncnc2[nH]c(-c3ccc4cncn4c3)cc12)c1ccc2c(c1)S(=O)(=O)CCC2 [ASAP-0011215]	87.0%

tested on: not listed separately; experiment: Hepatic microsomal stability, HLM; assay type: in vitro ADME, human; settings: In vitro human liver microsomal stability

SMILES	clint	perc_remaining	t_half
CC(C)[C@@H](Nc1ncnc2[nH]cc(C(=O)NC3CC3)c12)c1ccc2c(c1)S(=O)(=O)CCC2 [ASAP-0011207]	409.0 µL/min/mg	0.0%	4.1 min
CC(C)[C@@H](Nc1ncnc2[nH]c(-c3ccc4cncn4c3)cc12)c1ccc2c(c1)S(=O)(=O)CCC2 [ASAP-0011215]	210.0 µL/min/mg	4.0%	8.0 min

same assay, conditions: In vitro human liver microsomal stability; no cofactor

SMILES	perc_remaining_no_cofactor
CC(C)[C@@H](Nc1ncnc2[nH]cc(C(=O)NC3CC3)c12)c1ccc2c(c1)S(=O)(=O)CCC2 [ASAP-0011207]	111.0%
CC(C)[C@@H](Nc1ncnc2[nH]c(-c3ccc4cncn4c3)cc12)c1ccc2c(c1)S(=O)(=O)CCC2 [ASAP-0011215]	97.0%

tested on: SARS-CoV-2, isolate USA-WA1/2020; experiment: microbe, parasite or virus in culture; assay type: cell-based; settings: HeLa-ACE2 SARS-CoV-2 antiviral effect without P-gp inhibitor; maximum measured response of dose series

SMILES	perc_max_measured
CC(C)[C@@H](Nc1ncnc2[nH]cc(C(=O)NC3CC3)c12)c1ccc2c(c1)S(=O)(=O)CCC2 [ASAP-0011207]	103.36%
CC(C)[C@@H](Nc1ncnc2[nH]c(-c3ccc4cncn4c3)cc12)c1ccc2c(c1)S(=O)(=O)CCC2 [ASAP-0011215]	92.609%

same assay, conditions: HeLa-ACE2 SARS-CoV-2 antiviral effect without P-gp inhibitor; minimum measured response of dose series

SMILES	perc_min_measured
CC(C)[C@@H](Nc1ncnc2[nH]cc(C(=O)NC3CC3)c12)c1ccc2c(c1)S(=O)(=O)CCC2 [ASAP-0011207]	37.723%
CC(C)[C@@H](Nc1ncnc2[nH]c(-c3ccc4cncn4c3)cc12)c1ccc2c(c1)S(=O)(=O)CCC2 [ASAP-0011215]	28.375%

same assay, conditions: HeLa-ACE2 SARS-CoV-2 antiviral effect without P-gp inhibitor; read-out: ec50

SMILES	EC50
CC(C)[C@@H](Nc1ncnc2[nH]cc(C(=O)NC3CC3)c12)c1ccc2c(c1)S(=O)(=O)CCC2 [ASAP-0011207]	14.4 µM
CC(C)[C@@H](Nc1ncnc2[nH]c(-c3ccc4cncn4c3)cc12)c1ccc2c(c1)S(=O)(=O)CCC2 [ASAP-0011215]	7.12 µM

same assay, conditions: HeLa-ACE2 SARS-CoV-2 antiviral effect without P-gp inhibitor; read-out: ec90

SMILES	EC90
CC(C)[C@@H](Nc1ncnc2[nH]cc(C(=O)NC3CC3)c12)c1ccc2c(c1)S(=O)(=O)CCC2 [ASAP-0011207]	> 20 µM
CC(C)[C@@H](Nc1ncnc2[nH]c(-c3ccc4cncn4c3)cc12)c1ccc2c(c1)S(=O)(=O)CCC2 [ASAP-0011215]	> 20 µM
